Experiments:
SK-MEL-S [1] = conditions: cell-based assay, read-out: translation inhibition (EC50 nM) cell-based assay SK-MEL-S; cited from earlier work
Hela [2] = conditions: read-out: cytotoxicity (IC50 nM) Hela, CellTiter-Glo, mean ± standard deviation; cited from earlier work
Hela [3] = conditions: cell-based assay, read-out: translation inhibition (EC50 nM) cell-based assay Hela; cited from earlier work
SK-MEL-S [4] = conditions: read-out: cytotoxicity (IC50 nM) SK-MEL-S, CellTiter-Glo, mean ± standard deviation; cited from earlier work
translation = conditions: in vitro assay; mean ± standard deviation; read-out: translation inhibition (EC50 nM) in vitro assay; cited from earlier work
A2058 = test: Cell growth inhibition assay (CellTiter-Glo); assay type: cell-based, human; conditions: for IC50: Homo sapiens, 96 h, 4 days incubation; for Selectivity vs. IMR-90, A2058: ratio IC50[IMR-90]:IC50[tumor cell line]
Protocol: (§1) Cell Culture and Cell Growth Inhibition Assay.
(§2) The chosen cell lines are all human cancer cell lines except for the 4T1 murine breast cancer line, representing a wide variety of cancer types including breast (MDA-MB-453), kidney (A498), lung (H1975), pancreatic (PANC-1) and endometrial cancer (AN3CA, HEC-1A, and RL95-2), glioblastoma (U251 and U-87MG), melanoma (A2058 and LOXIMVI) and uterine sarcoma (MES-SA). All the cancer cell lines can be obtained from the American Type Culture Collection (ATCC, Manassas, Va., USA) with the exception of U251 which can be provided by the National Cancer Institute Tumor Repository (Frederick, Md.) and is cultured in the standard tissue culture media appropriate for each cell line. All the culture media are supplemented with 10% fetal bovine serum (FBS), 100 I.U./mL penicillin and 100 μg/mL streptomycin. For the cell growth inhibition assay, the cells are seeded in 96-well tissue culture plates at 500-3000 cells/well (seeding density empirically adjusted for each cell line based on growth rate optimization). The cells are allowed to attach for a minimum of 5 h prior to compound administration. The cells are incubated for a period of 4 days after compound addition. Following the incubation period, CellTiter-Glo reagent (Promega, Madison, Wis., USA) is added to all the wells to assess cell proliferation/viability. Luminescence is measured using an Envision microplate reader (Perkin Elmer, Waltham, Mass., USA). The IC50 values were calculated as the concentration which inhibited cell growth to 50% of DMSO control treated cell populations.

H522-T1 = test: Cell growth inhibition assay (CellTiter-Glo); assay type: cell-based, human; conditions: for IC50: Homo sapiens, 96 h, 4 days incubation; for Selectivity vs. IMR-90, H522-T1: ratio IC50[IMR-90]:IC50[tumor cell line]
Protocol: as §1, §2

[5] = test system: IMR-90 human fibroblast cells; test: IMR-90 cytotoxicity assay; assay type: cell-based; conditions: IMR-90, 72 h, read-out: IC50 (nM) Quiescent IMP-90
Description: IMR-90 Cytotoxicity Assay.
To evaluate the effect of compounds of the invention on non-proliferating normal cells, an in vitro cytotoxicity assay developed to distinguish between true antiproliferative activity and general cellular cytotoxicity unrelated to proliferation was used. Rudolph-Owen L A, Salvato K, Cheng C, Wu J, Towle M J and Littlefield B A: A 96-well plate cell-based assay to quantify undesired cytotoxic effects against quiescent non-dividing cells. Proc Amer Assoc Cancer Res 45: 264-265, 2004. In brief, IMR-90 human fibroblast cells, obtained from ATCC, were grown for 4 days to confluency in MEM containing 10% FBS and supplemented with L-glutamine, penicillin/streptomycin. After washing, the medium was replaced with complete MEM containing 0.1% FBS and the cells were cultured for 3 additional days to achieve complete quiescence. A compound of the invention or vehicle control was then added in the continued presence of 0.1% FBS, followed by incubation for 3 days at 37° C. Cell viability was assessed by the measurement of cellular ATPlevels using CellTiter-Glo reagent (Promega).

BXPC-3 = conditions: pancreas BXPC-3; cited from earlier work
NCI-H460 = conditions: lung NCI-H460; cited from earlier work
DU-145 = conditions: prostate DU-145; cited from earlier work
[6] = test system: P388 murine lymphocytic leukemia cell line; conditions: cited from earlier work
HCT-116 = test: Cell growth inhibition assay (CellTiter-Glo); assay type: cell-based, human; conditions: for IC50: Homo sapiens, 96 h, 4 days incubation; for Selectivity vs. IMR-90, HCT-116: ratio IC50[IMR-90]:IC50[tumor cell line]
Protocol: as §1, §2

SF-268 = conditions: CNS SF-268; cited from earlier work
MCF-7 = conditions: breast MCF-7; cited from earlier work
KM20L2 = conditions: colon KM20L2; cited from earlier work

SMILES	EC50 (SK-MEL-S [1]) [nM]	IC50 (Hela [2]) [nM]	EC50 (Hela [3]) [nM]	IC50 (SK-MEL-S [4]) [nM]	EC50 (translation) [nM]	IC50 (A2058) [nM]	Selectivity vs. IMR-90, A2058 (A2058)	IC50 (H522-T1) [nM]	Selectivity vs. IMR-90, H522-T1 (H522-T1)	IC50 [5] [nM]	other results
C[C@@H]1C[C@@H]([C@H](O)CC2CC(=O)NC(=O)C2)C(=O)[C@@H](C)C1 [cycloheximide]	2670	2290 ± 1520	3320 ± 434	3130 ± 764	3150 ± 2350						
C=C(C)C[C@H](OC)[C@H](O)C(=O)N[C@@H](OC)[C@@H]1C[C@@H](O)C(C)(C)[C@@H](C[C@H](O)[C@@H](C)C2Cc3c(C)c(O)cc(O)c3C(=O)O2)O1 (stereo partly shown) [1a]	33 ± 10	0.64 ± 0.14	22 ± 1.4	0.27 ± 0.04	28 ± 7						
C=C(C)C[C@@H](OC)[C@H](O)C(=O)N[C@@H](OC)[C@@H]1C[C@@H](O)C(C)(C)[C@@H](C[C@H](O)[C@@H](C)C2Cc3c(C)c(O)cc(O)c3C(=O)O2)O1 (stereo partly shown) [compound 3]	495	614 ± 267	4950 ± 4870	352 ± 12.1	346 ± 64						
C=C(C)C[C@H](OC)[C@H](O)C(=O)N[C@@H](OC)[C@@H]1C/C(=N/OC)C(C)(C)[C@@H](C[C@H](O)[C@@H](C)[C@H]2Cc3c(C)c(O)cc(O)c3C(=O)O2)O1 (stereo in doubt) [C(11)-O-Methyloxime-Irciniastatin B]						0.5	92	0.8	58	46	
C=C(C)C[C@H](OC)[C@H](O)C(=O)N[C@@H](OC)[C@@H]1CC(=O)C(C)(C)[C@@H](C[C@H](O)[C@@H](C)[C@H]2Cc3c(C)c(O)cc(O)c3C(=O)O2)O1 [Irciniastatin B, (−)-Irciniastatin B]						0.5	114	0.8	71	57	Growth Inhibition of Cancer Cell Lines (GI50) (BXPC-3): 0.73 ng/mL; Growth Inhibition of Cancer Cell Lines (GI50) (NCI-H460): 1.2 ng/mL; Growth Inhibition of Cancer Cell Lines (GI50) (DU-145): 1.6 ng/mL; Growth Inhibition of Cancer Cell Lines (GI50) [6]: 6 ng/mL; IC50 (HCT-116): 3 nM; Selectivity vs. IMR-90, HCT-116 (HCT-116): 19; Growth Inhibition of Cancer Cell Lines (GI50) (SF-268): 0.66 ng/mL; Growth Inhibition of Cancer Cell Lines (GI50) (MCF-7): 0.5 ng/mL; Growth Inhibition of Cancer Cell Lines (GI50) (KM20L2): 2.1 ng/mL
C=C(C)C[C@H](OC)[C@H](O)C(=O)N[C@@H](OC)[C@@H]1C[C@H](O)C(C)(C)[C@@H](C[C@H](O)[C@@H](C)[C@H]2Cc3c(C)c(O)cc(O)c3C(=O)O2)O1 [epi-C(11)-Irciniastatin A]						0.4	85	0.9	38	34	IC50 (HCT-116): 3 nM; Selectivity vs. IMR-90, HCT-116 (HCT-116): 11
C=C(C)C[C@H](OC)[C@H](O)C(=O)N[C@@H](OC)[C@@H]1C[C@@H](O)C(C)(C)[C@@H](C[C@H](O)COC)O1 [compound 5]	578	> 1000	1650 ± 1060	> 1000	641 ± 262						
C=C(C)C[C@H](OC)[C@H](O)C(=O)N[C@@H](OC)[C@@H]1CC(=C)C(C)(C)[C@@H](C[C@H](O)[C@@H](C)[C@H]2Cc3c(C)c(O)cc(O)c3C(=O)O2)O1 [C(11)-Exomethylene-Irciniastatin B]						0.7	70	1.6	31	49	IC50 (HCT-116): 1 nM; Selectivity vs. IMR-90, HCT-116 (HCT-116): 49
C=C1C[C@](OC)([C@H](O)C(=O)NC2OCO[C@H]3[C@@H]2O[C@H](C[C@H](O)CO)C(C)(C)[C@@H]3OC)O[C@H](C)[C@@H]1C (stereo partly shown) [compound 8]	64	2.52 ± 1.39	59 ± 32	3.79 ± 0.04	238 ± 44						
C=C(C)C[C@H](OC)[C@H](O)C(=O)N[C@H](OC)[C@@H]1C[C@@H](O)C(C)(C)[C@@H](C[C@H](O)COC)O1 [compound 6]	> 10000	> 1000	> 10000	> 1000	> 10000						
C=C(C)C[C@H](OC)[C@H](O)C(=O)N[C@H](OC)[C@@H]1C[C@@H](O)C(C)(C)[C@@H](C[C@H](O)[C@@H](C)C2Cc3c(C)c(O)cc(O)c3C(=O)O2)O1 (stereo partly shown) [compound 4]	843	> 1000	2200 ± 1410	763 ± 70	318 ± 182						
C=C(C)C[C@H](OC)[C@H](O)C(=O)N[C@@H](OC)[C@@H]1C[C@@H](OC(C)=O)C(C)(C)[C@@H](C[C@H](O)[C@@H](C)[C@H]2Cc3c(C)c(O)cc(O)c3C(=O)O2)O1 [C(11)-OAc-Irciniastatin A]						0.4	68	0.7	39	27	IC50 (HCT-116): 2 nM; Selectivity vs. IMR-90, HCT-116 (HCT-116): 14
Cc1c(O)cc(O)c2c1CC([C@H](C)[C@@H](O)C[C@H]1O[C@H](C(N)=O)C[C@@H](O)C1(C)C)OC2=O (stereo partly shown) [compound 7]	> 10000	> 1000	> 10000	> 1000	> 10000						
C=C(C)C[C@H](OC)[C@H](O)C(=O)N[C@@H](OC)[C@@H]1C[C@@H](OC(=O)c2ccccc2)C(C)(C)[C@@H](C[C@H](O)[C@@H](C)[C@H]2Cc3c(C)c(O)cc(O)c3C(=O)O2)O1 [C(11)-Obz-Irciniastatin A, C(11)-OBz-Irciniastatin A]						2.7	30	5.4	15	81	

From patent US9540355B2, “Irciniastatin analogues” (priority 2013, dated 2017)
